We go through 25 compounds from ChEMBL document CHEMBL1201862, “PubChem BioAssay data set” (2004).

Some test systems named below: DMS-273; SNB-78; RXF 631; M19-MEL; XF498; DLD-1; LXFL 529; KM-20L2; HOP-18.
What all share (experiment): NCI anticancer screen, dose series, 48 h

Values joined by “and” are separate entries in the source; they are usually repeats but may differ in a detail not shown here. Equal values may be shown once.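 How tested: cells in 96-well plates exposed to compound for 48 hours at five concentrations. GI50: concentration for 50% inhibition of growth.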 Active and inactive are the calls of the source. Cut-off read from the data, not from the text of the source: active = GI50 up to about 1.1 µM and inactive = higher.

Take `Cc1cc(C)cc(NC(N)=S)c1`: the GI50 with DMS-273 was > 100 µM (inactive); in the assay on SNB-78 it was > 100 µM (inactive); with RXF 631, > 100 µM (inactive); in the assay on M19-MEL, > 100 µM (inactive); in the assay on XF498 it was 46.5 µM (inactive); with DLD-1, > 100 µM (inactive). Also, the GI50 in the assay with LXFL 529 and with KM-20L2 was > 100 µM (inactive) each time.
`O=C(O)C1Cc2[nH]cnc2CN1` (configuration not stated): the GI50 in the assay on DMS-273, with HOP-18, with SNB-78, with RXF 631, in the assay with M19-MEL and with DLD-1 was > 100 µM (inactive) each time. In addition, the GI50 with LXFL 529 and in the assay with KM-20L2 was > 100 µM (inactive) each time.
With `O=C(Cn1ccnc1[N+](=O)[O-])N(CCO)CCO`, the GI50 with DMS-273 was > 1250 µM (inactive); with HOP-18, > 1250 µM (inactive); in the assay on SNB-78, > 1250 µM (inactive); in the assay on M19-MEL, > 1250 µM (inactive); in the assay with XF498, > 58.1 µM (inactive); in the assay on DLD-1 it was > 1250 µM (inactive). For the same compound, the GI50 in the assay with KM-20L2 is > 1250 µM (inactive).
For the compound `Cc1ccc(C(=O)OCC(C)C)cc1/N=N/N(C)C`, the GI50 in the assay with DMS-273 was 45.5 µM (inactive); with SNB-78, 64.9 µM (inactive); in the assay on M19-MEL, 44 µM (inactive); in the assay on DLD-1 it was 45.5 µM (inactive); with LXFL 529, > 100 µM (inactive); in the assay with KM-20L2, 38.7 µM (inactive).
Turning to `Cc1c2c(c(C)c3c1[nH]c1ccccc13)CN(C)CC2`, the GI50 was 16.7 µM (inactive) in the assay with DMS-273; 6.21 µM (inactive) in the assay on HOP-18; 21.9 µM (inactive) in the assay on SNB-78; 22.8 µM (inactive) in the assay with RXF 631; 16.6 µM (inactive) in the assay on M19-MEL; 34.4 µM (inactive) with DLD-1. Further, the GI50 in the assay with LXFL 529 is 14.9 µM (inactive); in the assay with KM-20L2, 18.8 µM (inactive).
`CCOC(=O)/C(=C/c1ccc(C(F)(F)F)cc1)N(CC)CC`: the GI50 in the assay on HOP-18 was 12.5 µM (inactive); with SNB-78 it was 81.8 µM (inactive); in the assay on RXF 631, > 100 µM (inactive); in the assay with XF498 it was 58.1 µM (inactive); with DLD-1, 54.1 µM (inactive); with LXFL 529, 51.6 µM (inactive).
As for `C=CCc1cc(OC)c2c(c1)C(O)CC(c1ccccc1)O2` (configuration not stated), the GI50 in the assay on DMS-273, with HOP-18, in the assay on SNB-78, with RXF 631, with M19-MEL and in the assay with DLD-1 was > 100 µM (inactive) in each case. Further, the GI50 in the assay with LXFL 529 is > 100 µM (inactive); in the assay with KM-20L2 it was 78.3 µM (inactive).
As for `Sc1nnc(C(c2ccccc2)c2ccccc2)[nH]1`, the GI50 with DMS-273, with RXF 631, in the assay with M19-MEL, with XF498, in the assay on DLD-1 and in the assay with KM-20L2 was > 100 µM (inactive) in each case.
With `CCC(C)NC1=C(NC(C)=O)C(=O)c2ccccc2C1=O` (configuration not stated), the GI50 was 27.6 µM (inactive) with DMS-273; > 75 µM (inactive) in the assay on HOP-18; > 75 µM (inactive) with SNB-78; 48.3 µM (inactive) in the assay on M19-MEL; > 75 µM (inactive) with XF498; 27.4 µM (inactive) in the assay with DLD-1. Moreover, the GI50 in the assay on LXFL 529 was 54.8 µM (inactive); with KM-20L2 it was > 75 µM (inactive).
For `CCOC(=O)C(Cc1ccc([N+](=O)[O-])cc1)NC(=O)CC1c2ccccc2-c2ccccc21` (configuration not stated), the GI50 in the assay with DMS-273 was 63.5 µM (inactive); in the assay on HOP-18 it was > 100 µM (inactive); in the assay on SNB-78, 23.8 µM (inactive); in the assay with M19-MEL it was 18.9 µM (inactive); in the assay on XF498 it was 20.8 µM (inactive); in the assay on DLD-1, > 100 µM (inactive). For the same compound, the GI50 in the assay on LXFL 529 and in the assay with KM-20L2 was > 100 µM (inactive) throughout.
For the compound `COc1ccc(N2C(=O)C3c4[nH]c5ccccc5c4C4CCCCCCC4C3C2=O)cc1` (configuration not stated), the GI50 in the assay with DMS-273 is 5.35 µM (inactive); in the assay with HOP-18, 1.57 µM (inactive); in the assay with SNB-78 it was 27.8 µM (inactive); with M19-MEL, 23.3 µM (inactive); in the assay on XF498, 10.4 µM (inactive); in the assay on DLD-1 it was 11.2 µM (inactive). Besides, the GI50 is 6.08 µM (inactive) with LXFL 529 and 28.8 µM (inactive) in the assay on KM-20L2.
Take `C/C(=N\OCC(O)CNC(C)C)c1ccc2c(c1)NC(=O)CS2` (configuration not stated): the GI50 with HOP-18, in the assay with SNB-78, in the assay with M19-MEL, in the assay on XF498, with DLD-1 and in the assay on LXFL 529 was > 100 µM (inactive) in each case. In addition, the GI50 in the assay on KM-20L2 is > 100 µM (inactive).
Regarding `CC(C)(O)[C@@H]1CC[C@@]2(C)CCC[C@H](O)[C@H]2C1`, the GI50 in the assay with DMS-273, with HOP-18, in the assay on RXF 631, in the assay with M19-MEL, in the assay with XF498 and in the assay with DLD-1 was > 100 µM (inactive) throughout. In addition, the GI50 with LXFL 529 and with KM-20L2 was > 100 µM (inactive) throughout.
For `CC(C)(c1ccccc1)c1ccc(Oc2ccc(C#N)c(C#N)c2)cc1`, the GI50 in the assay with HOP-18 was > 10 µM (inactive); with SNB-78, > 10 µM (inactive); in the assay with RXF 631 it was > 10 µM (inactive); with M19-MEL it was 79.1 µM (inactive); in the assay on XF498, > 10 µM (inactive); in the assay on DLD-1, > 10 µM (inactive). Moreover, the results for the GI50 in the assay with LXFL 529 and in the assay with KM-20L2 were 24.4 µM (inactive) and > 10 µM (inactive), respectively.
On to `Cc1cn(Cc2ccccc2CCO)c(=S)[nH]c1=O`, for which the GI50 with DMS-273, with HOP-18, in the assay with RXF 631, with M19-MEL, in the assay on XF498 and in the assay with LXFL 529 was > 100 µM (inactive) each time. Moreover, the GI50 in the assay on KM-20L2 is > 100 µM (inactive).
With `CC1CN(c2ccc(Cl)cc2)CC(C)(C)OC(=O)O1` (configuration not stated), the GI50 in the assay with DMS-273, with SNB-78, in the assay on RXF 631, in the assay with M19-MEL, with XF498 and in the assay on DLD-1 was > 100 µM (inactive) throughout. Further, the GI50 in the assay on LXFL 529 and in the assay with KM-20L2 was > 100 µM (inactive) throughout.
For `COC(=O)C1CC/C(=N\c2cccc(C(F)(F)F)c2)N1` (configuration not stated), the GI50 in the assay with DMS-273, with HOP-18, in the assay with SNB-78, with RXF 631, in the assay on XF498 and in the assay on DLD-1 was > 100 µM (inactive) in each case. In addition, the GI50 in the assay on LXFL 529 was > 100 µM (inactive).
On to `CC(=O)OCC1OC(N2C(=O)C(=O)c3cc(C)ccc32)C(OC(C)=O)C(OC(C)=O)C1OC(C)=O` (configuration not stated), for which the GI50 was > 100 µM (inactive) with DMS-273; > 100 µM (inactive) with HOP-18; > 100 µM (inactive) in the assay with SNB-78; 50.7 µM (inactive) with M19-MEL; 56 µM (inactive) with DLD-1; > 100 µM (inactive) with LXFL 529. Besides, the GI50 in the assay with KM-20L2 was 60.5 µM (inactive).
Consider `O=C(O)CCSC(=O)Nc1cccc(F)c1`, for which the GI50 in the assay with DMS-273 is > 100 µM (inactive); in the assay with SNB-78, > 100 µM (inactive); in the assay with DLD-1 it was > 10 µM (inactive); in the assay with LXFL 529, > 100 µM (inactive); with KM-20L2 it was > 100 µM (inactive).
Take `O=S(=O)(O)c1cc(O)c2c(O)c(/N=N/c3ccc(/C=C/c4ccc(/N=N/c5c(S(=O)(=O)O)cc6cc(S(=O)(=O)O)cc(O)c6c5O)cc4S(=O)(=O)O)c(S(=O)(=O)O)c3)c(S(=O)(=O)O)cc2c1`: the GI50 with DMS-273, in the assay on HOP-18, in the assay on M19-MEL, in the assay with XF498, with DLD-1 and in the assay on LXFL 529 was > 100 µM (inactive) each time. Further, in the assay on KM-20L2, the GI50 was > 100 µM (inactive).
As for `COc1cc(C2c3cc4c(cc3[C@@H](Nc3ccc(F)cc3)C3COC(=O)[C@H]23)OCO4)cc(OC)c1O` (some centres not stated), the GI50 is 0.891 µM (active) with DMS-273; 10.6 µM (inactive) with HOP-18; 8.65 µM (inactive) in the assay on SNB-78; 4.21 µM (inactive) in the assay on M19-MEL; 2.95 µM (inactive) with XF498; 3.79 µM (inactive) in the assay with DLD-1. Also, the GI50 in the assay on LXFL 529 is 6.67 µM (inactive); in the assay on KM-20L2, 2.08 µM (inactive).
Regarding `O=C1C2C3CCC(C2C(=O)N1CO)C1C2C(=O)N(CO)C(=O)C2C31` (configuration not stated), the GI50 with DMS-273 is 36.1 µM (inactive); in the assay with HOP-18, 13.7 µM (inactive); with SNB-78 it was > 100 µM (inactive); in the assay on M19-MEL it was 1 µM (active); in the assay with XF498 it was > 100 µM (inactive); in the assay on DLD-1 it was 45.4 µM (inactive). Further, the GI50 was 55.3 µM (inactive) in the assay on LXFL 529 and > 52.6 µM (inactive) in the assay on KM-20L2.
On to `N=c1nc2n(cc1F)[C@@H]1O[C@H](CO)[C@@H](O)[C@@H]1O2`, for which the GI50 was 3.63 µM (inactive) with DMS-273; 13.4 µM (inactive) in the assay with HOP-18; 62.2 µM (inactive) in the assay with SNB-78; > 100 µM (inactive) with XF498; 1.44 µM (inactive) in the assay with DLD-1; > 26.5 µM (inactive) with LXFL 529. Also, the GI50 in the assay with KM-20L2 is 2.99 µM (inactive).
With `CC1=C2C(=O)O[C@@H](c3ccoc3)[C@]2(C)CCC1` [FRAXINELLONE], the GI50 with HOP-18, in the assay on SNB-78, in the assay with M19-MEL, in the assay on XF498, in the assay on DLD-1 and in the assay with LXFL 529 was > 100 µM (inactive) in each case. Also, in the assay with KM-20L2, the GI50 was > 100 µM (inactive).
As for `O=C1c2ccccc2-c2c3c(cc4ccnc1c24)OCO3` [LIRIODENINE], the GI50 was 3.44 µM (inactive) and 5.46 µM (inactive) in the assay on DMS-273; 24.9 µM (inactive) with HOP-18; 5.86 µM (inactive) and 3.75 µM (inactive) in the assay with M19-MEL; 5.75 µM (inactive) and 4.69 µM (inactive) in the assay with XF498; 4.49 µM (inactive) and 4.05 µM (inactive) in the assay on DLD-1; 5.89 µM (inactive) and 6.52 µM (inactive) in the assay on LXFL 529. Further, in the assay on KM-20L2, the GI50 is 7.14 µM (inactive) and 5.82 µM (inactive).
